The target of the test is Human immunodeficiency virus type 1 reverse transcriptase (Human immunodeficiency virus 1, UniProt Q72547). In words: Inhibitory activity against HIV-1 reverse transcriptase.

Where only a bound is given, the exact number is not on record here.

Take `CC(=O)Nc1ccc2c(c1)C(C#CC(C)C)(C(F)(F)F)OC(=O)N2` (stereo unspecified): the IC50 was < 2000 nM.

The values above are taken from ChEMBL document CHEMBL1138728, “QSAR modelling of HIV-1 reverse transcriptase inhibition by benzoxazinones using a combination of P_VSA and pharmacophore feature descriptors” (Bioorg Med Chem Lett, 2004).
